What was measured:
[1] = Stability of the ligand in water; assay type: physicochemical; conditions: free ligand versus metal-chelated ligand
Experimental: The production of kits of ECDG, a water labile ligand, is problematic as the normal kit procedure includes a lyophilisation step in the aqueous phase wherein the pure ligand active pharmaceutical ingredient (API) is dissolved in water/saline containing at least one each of a reducing agent, additive and buffer, distributed in vials and freeze dried. At the hospital the ^99mTc in saline is added to the kit and reconstituted. The ^99mTc is then chelated to the ECDG ligand and the ^99mTc-ECDG radiopharmaceutical is ready for injection.

[2] = aqueous medium in the published syntheses; cited from earlier work

Structure (SMILES) | stability in water [1] | sensitivity to air, light, water and temperature [2]
O=C(NC1C(O)O[C@H](CO)[C@@H](O)[C@@H]1O)C(CS)NCCN[C@@H](CS)C(=O)NC1C(O)O[C@H](CO)[C@@H](O)[C@@H]1O (stereo partly drawn) [ECDG, ethylenedicysteine deoxyglucosamine] | breaks down in water almost immediately | air, light, water and temperature sensitive
O=C(NC1C(O)O[C@H](CO)[C@@H](O)[C@@H]1O)C1C[S][Tc]23(=[O])[S]C[C@@H](C(=O)NC4C(O)O[C@H](CO)[C@@H](O)[C@@H]4O)[N]2CC[N]13 (stereo partly drawn) [^99mTc-ECDG, ^99mTechnetium-ethylenedicysteine deoxyglucosamine] | stable in water | –

Reference: patent US20160346412A1, “A KIT FOR PREPARING A RADIOPHARMACEUTICAL” (THE SOUTH AFRICAN NUCLEAR ENERGY CORPORATION LIMITED, priority 2014, published 2016)
